How the values were obtained:
[1] = system: TPA-induced ear edema and acanthosis in Balb/c mice; test: Mouse TPA-induced ear-swelling model; type: in vivo; conditions: topical, 240 h, 1% w/v solution, 20 μL applied to ear once a day from day 0 to day 9, female Balb/c mice, read-out: Inhibition rate of change in ear thickness on day 10
Description: Seven-week-old female Balb/c mice (Charles River Laboratories Japan) were used. 20 μL of a 20 ng/mL solution of TPA (Wako Pure Chemical Industries, 162-23591) dissolved in 5% DMSO/acetone was applied to the outer side of the mouse ear on day 0, day 2, day 4, day 7 and day 9 to induce ear edema and acanthosis. The test compound was dissolved in a 5% DMSO/acetone solution (concentration: 1% w/v) and 20 μL of the resulting solution was applied to the outer side of the ear once a day from day 0 to day 9. For the control group, a 5% DMSO/acetone solution was similarly applied. The TPA solution and the test compound solution were mixed and applied on the days for TPA application (day 0, day 2, day 4, day 7 and day 9). The ear thickness was chronologically measured on days 0-4 and days 7-10 using a micrometer (Mitutoyo, MDC-25MJT). The change in ear thickness and the inhibition rate were determined by the following formulas. Change in ear thickness=(ear thickness measured on day 10)−(ear thickness measured on day 0 before TPA application) Inhibition rate (%)=100−(change in ear thickness for test compound group/change in ear thickness for control group)×100

[2] = system: TNFα production in LPS-stimulated Raw264.7 cells; test: TNFα production inhibition test; type: cell-based; conditions: Mus musculus, test compound 1 μmol/L, LPS 1 μg/mL, 16 hours, ELISA, read-out: Inhibition rate of TNFα production
Procedure, shortened: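 Mouse Raw264.7 macrophages were pretreated 1 h with compound at a final 1 μmol/L in 1% FBS medium, then stimulated with LPS at 1 μg/mL. Supernatant TNFα was measured by ELISA after 16 hours. Inhibition (%) is calculated relative to TNFα produced without compound.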

[3] = system: normal human neonatal foreskin epidermal keratinocytes (NHEK-F); test: Cell proliferation inhibition test; type: cell-based; conditions: Keratinocyte, 72 h, NHEK-F cells, three days incubation, ATPlite or CellTiterGlo, read-out: IC50 (concentration of the compound at which the cell count is reduced by 50%)
Procedure, shortened: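 NHEK-F keratinocytes, 2×10^3 per well in Humedia-EG2, plated overnight, then exposed to compound for three days. Cell count by ATPlite or CellTiterGlo luminescence; inhibition = 100 − (treated/untreated count)×100, IC50 as 50% reduction concentration.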

Q: For O=C(O)c1cc(C2CC2)ccc1Nc1ccc2c(cnn2Cc2ccccc2)c1 [Example 29, 2-((1-benzyl-1H-indazol-5-yl)amino)-5-cyclopropylbenzoic acid], which inhibition in vivo at 1 % strength [1] is on record?
A: ≥ 20%

Q: And the inhibition at 1 µM [2]?
A: ≥ 50%

Q: And the IC50 [3]?
A: ≤ 10 nM

Q: Which results are given for O=C(O)c1cc(C(F)(F)F)ccc1Nc1ccc2c(ccn2Cc2ccccc2)c1 [Example 32, 2-((1-benzyl-1H-indol-5-yl)amino)-5-(trifluoromethyl)benzoic acid]?
A: inhibition in vivo at 1 % strength [1]: ≥ 20%; inhibition at 1 µM [2]: ≥ 50%; IC50 [3]: ≤ 10 nM

Q: Which inhibition in vivo at 1 % strength [1] does the source give for O=C(O)c1cc(C2CC2)ccc1Nc1ccc2c(ccn2Cc2cccc(OCC(F)(F)F)c2)c1 [Example 35, 5-cyclopropyl-2-((1-(3-(2,2,2-trifluoroethoxyl)benzyl)-1H-indol-5-yl)amino)benzoic acid] here?
A: ≥ 20%

Q: And the inhibition at 1 µM [2]?
A: ≥ 50%

Q: What about the IC50 [3] of the same compound?
A: ≤ 10 nM

Q: Which inhibition in vivo at 1 % strength [1] does the source give for O=C(O)c1cc(C2CC2)cnc1Nc1ccc2c(ccn2Cc2ccccc2)c1 [Example 37, 2-((1-benzyl-1H-indol-5-yl)amino)-5-cyclopropylnicotinic acid] here?
A: ≥ 20%

Q: And the inhibition at 1 µM [2]?
A: ≥ 50%

Q: And the IC50 [3]?
A: ≤ 10 nM

Q: For O=C(O)c1cc(C2CC2)cnc1Nc1ccc2c(ccn2-c2ccccc2)c1 [Example 39, 5-cyclopropyl-2-((1-phenyl-1H-indol-5-yl)amino)nicotinic acid], which inhibition in vivo at 1 % strength [1] is on record?
A: ≥ 20%

Q: What about the inhibition at 1 µM [2] of the same compound?
A: ≥ 50%

Q: What about the IC50 [3] of the same compound?
A: ≤ 10 nM

Q: What does the source list for O=C(O)c1nc(C2CC2)cnc1Nc1ccc2c(ccn2Cc2ccccc2)c1 [Example 71, 3-((1-benzyl-1H-indol-5-yl)amino)-6-cyclopropylpyrazine-2-carboxylic acid]?
A: inhibition in vivo at 1 % strength [1]: ≥ 20%; inhibition at 1 µM [2]: ≥ 50%; IC50 [3]: ≤ 10 nM

Q: O=C(O)c1cc(C2CC2)cnc1Nc1ccc2c(c1)sc(=O)n2Cc1ccccc1 [Example 75, 2-((3-benzyl-2-oxo-2,3-dihydrobenzo[d]thiazol-6-yl)amino)-5-cyclopropylnicotinic acid] was tested. Which inhibition in vivo at 1 % strength [1] did it give?
A: ≥ 20%

Q: What about the inhibition at 1 µM [2] of the same compound?
A: ≥ 50%

Q: What about the IC50 [3] of the same compound?
A: ≤ 10 nM

Q: With O=C(O)c1cc(Cl)cnc1Nc1ccc2c(ccn2Cc2ccccc2)c1 [Example 90, 2-((1-benzyl-1H-indol-5-yl)amino)-5-chloronicotinic acid] as the compound, how does the inhibition in vivo at 1 % strength [1] read?
A: ≥ 20%

Q: What about the inhibition at 1 µM [2] of the same compound?
A: ≥ 50%

Q: And the IC50 [3]?
A: 10 to 100 nM

Q: Which inhibition in vivo at 1 % strength [1] does the source give for O=C(O)c1cc(C2CC2)ccc1Nc1ccc2c(ccn2Cc2ccccc2)c1 [Example 94, 2-((1-benzyl-1H-indol-5-yl)amino)-5-cyclopropylbenzoic acid] here?
A: ≥ 20%

Q: What about the inhibition at 1 µM [2] of the same compound?
A: ≥ 50%

Q: And the IC50 [3]?
A: ≤ 10 nM

Q: Which inhibition in vivo at 1 % strength [1] does the source give for O=C(O)c1cc(Cl)ccc1Nc1cccc2c1ccn2-c1ccccc1 [Example 275, 5-chloro-2-((1-phenyl-1H-indol-4-yl)amino)benzoic acid] here?
A: ≥ 20%

Q: And the inhibition at 1 µM [2]?
A: ≥ 50%

Q: What about the IC50 [3] of the same compound?
A: ≤ 10 nM

Reference: US9624215B2, “Amine derivative or salt thereof” (TOYAMA CHEMICAL CO., LTD., priority 2012, dated 2017)
